Here are results for 2 compounds from PMC12202533, “Mechanistic Insights and Anti-cancer Activity of 2H-benzo[b][1,4]oxazin-3(4H)-one Linked 1,2,3-Triazoles in Human Cancer Cells” (Frontiers in Pharmacology, 2025).

Structures are written as SMILES. Where two headings read alike, the source gives them in different places.

One assay deals with A549. Kind of assay: CCK-8 cell viability assay and IC50 measurement. The class given is cell-based, human. The following applies: Homo sapiens; for viability at 40 µM / inhibition at 40 µM: A549, 40 μM, 48 h; for viability at 40 µM: CCK-8, read-out: Cell viability (100%), 40 μM, 48 h, A549; for inhibition at 40 µM: read-out: inhibition rate. The procedure:
(§1) In order to investigate the anticancer activity of new synthetic 1,4-benzoxazinone-linked 1,2,3-triazole compounds, we chose several cancer cell lines, including A549 (lung), Huh7 (liver), MCF-7 (breast), HCT-116 (colon), and SKOV3 (ovary), and measured cell viability using the CCK-8 assay. Cells were exposed to 40 μM of the compounds for 48 h, and then cell viability was determined. […] In addition, we used the reference drug gefitinib as a positive control and measured its cell viability on different cell lines. […] We used BEAS-2B cells as a normal cell line to determine the toxic effects of these compounds on normal cells. […] Furthermore, we evaluated the IC50 of these compounds in A549.
(§2) Human cancer cell lines A549, Huh7, MCF-7, HCT-116, and SKOV3 were obtained from ATCC. The cells were cultured in DMEM or RPMI 1640 medium supplemented with 10% FBS and 1% penicillin/streptomycin and incubated at 37°C in a CO2-humidified atmosphere.
(§3) Cells were cultured in DMEM or RPMI 1640 medium containing 10% FBS and 1% penicillin/streptomycin at 37°C and 5% CO2. The CCK-8 assay was performed on several human cancer cell lines, including A549, Huh7, MCF-7, HCT-116, and SKOV3, according to the manufacturer’s instructions. Cells were plated at a density of 5 × 10^3 cells per well in a 96-well plate. After 24 h of incubation, cells were treated with 40 μM compounds for 48 h. Cell viability was assessed by adding 10 μL of CCK-8 reagent, dissolved in the cell culture medium, and incubating for 1 h. Absorbance was measured at 450 nm using a microplate reader. IC50 values were determined using a dose-response curve with six concentrations (0, 10, 20, 40, 80, and 160 μM), and IC50 values were calculated using GraphPad Prism software.
Background: Tetrazolium dyes change colour on reduction, which living cells bring about.

Assay [1] deals with A549 cells. Kind of assay: Autophagy staining assay (MDC probe). The class given is cell-based, human. To be noted: A549, 10, 20, and 30 μM, 24 h. The procedure: To further evaluate the role of 2H-1,4-benzoxazin-3(4H)-one-linked 1,2,3-Triazole derivatives in regulating autophagy, A549 cells were treated with different doses (10, 20, and 30 μM) of compounds 14b and 14c for 24 h, and the autophagosome was detected by MDC (monodansylcadaverine) probe.
A549 cells were seeded at a density of 2 × 10^3 cells per well in a 96-well plate and treated with compounds at concentrations of 0, 5, 10, 20, and 30 μM for 24 h. After treatment, the medium was replaced, and cells were stained with monodansylcadaverine for 1 h in the dark at 37°C. Cells were then imaged using a confocal microscope.

In assay [2] the test system is A549 cells. Put plainly: Annexin V-FITC/PI apoptosis quantification by flow cytometry. It is filed as cell-based, human. To be noted: 48 h. The procedure:
We used these two compounds to clarify this function and explore the underlying mechanism. To investigate whether the new compound could induce cell apoptosis, A549 cells were exposed to different concentrations of 14b and 14c for 48 h. The cells were then stained with Annexin V-FITC and propidium iodide (PI). The Annexin V-FITC/PI staining was performed to quantify the percentage of apoptotic cells by flow cytometry.
A549 cells were exposed to different concentrations of 14b and 14c (5 μM, 10 μM, and 20 μM) for 48 h. Cells were collected and stained with Annexin V-FITC and PI, and apoptotic cells were measured by flow cytometry. Data are presented as mean ± SEM, *P < 0.05.
A549 cells were plated at a density of 3 × 10^5 cells per well in a six-well plate. Compounds at concentrations of 0, 5, 10, or 20 μM were added to the cells for 48 h. Cells were then collected, washed with PBS, and stained with Annexin V-FITC and propidium iodide for 20 min. Apoptotic cells were quantified using a flow cytometer, and the data were further analyzed using FlowJo software.
For orientation: In flow cytometry, cells or beads pass a laser one at a time.

A further assay has as its system MCF-7. Kind of assay: CCK-8 cell viability assay. It is filed as cell-based. The following applies: Homo sapiens, MCF7, MCF-7, 40 μM, 48 h, read-out: Cell viability (100%), 40 μM, 48 h, MCF-7. The procedure: as §1, §2, §3
For another assay, the system named is HCT-116. Kind of assay: CCK-8 cell viability assay. It is filed as cell-based. To be noted: Homo sapiens, HCT-116, 40 μM, 48 h, read-out: Cell viability (100%), 40 μM, 48 h, HCT-116. As for the experimental part: as §1, §2, §3
A further assay relates to Huh7. Put plainly: CCK-8 cell viability assay. The class given is cell-based. To be noted: Homo sapiens, Huh-7, Huh7, 40 μM, 48 h, read-out: Cell viability (100%), 40 μM, 48 h, Huh7. The procedure: as §1, §2, §3
A further assay concerns SKOV3. Kind of assay: CCK-8 cell viability assay. The class given is cell-based. To be noted: Homo sapiens, SK-OV-3, SKOV3, 40 μM, 48 h, read-out: Cell viability (100%), 40 μM, 48 h, SKOV3. As for the experimental part: as §1, §2, §3
Assay [3] has as its system A549 cells. Kind of assay: DNA damage staining (γ-H2AX antibody and DAPI). The class given is cell-based, human. To be noted: A549, 5, 10, and 20 μM, 24 h. The procedure: In order to further verify the effects of 2H-1,4-benzoxazin-3(4H)-one linked 1,2,3-triazole derivatives on DNA damage, A549 cells were treated with different doses (5, 10, and 20 μM) of compounds 14b and 14c. After 24-h treatment, cells were stained with γ-H2AX antibody and DAPI, cell nuclei were stained blue, and DNA-damaged cells were stained green. Using confocal microscopy, cells were observed and photographed.
A549 cells were seeded at a density of 2 × 10^3 cells per well in 96-well plates. Cells were treated with different concentrations (0, 5, 10, 20, and 30 μM) of the compounds for 24 h. DNA damage was assessed using a DNA damage detection kit. The cell nuclei were stained blue, while DNA-damaged cells were stained green. Cells were then observed and photographed using a fluorescence microscope.

Setting [4] is: A549, 48 h, read-out: IC50 48 h.
[5] abbreviates: A549, 72 h, read-out: IC50 72 h.

Broadly, the IC50 is the point on the concentration scale where inhibition reaches its midpoint. The term viability denotes a read-out of living cells in per cent, often relative to untreated cells. Broadly, the inhibition is how much of the control response was suppressed. As to `O=C1COc2ccc(NC(=O)c3cccc(-c4cn(-c5ccccc5F)nn4)c3)cc2N1` [Compound 14c], the results for the IC50 in the assay with A549 (setting [4]) and in the assay on A549 (setting [5]) were 24.1 ± 3.83 µM and 18.5 ± 0.59 µM, respectively. Besides, the viability at 40 µM in the assay on A549 came to 22.6 ± 0.88%; in the assay on MCF-7, 110 ± 2.45%; in the assay with HCT-116 it was 65.3 ± 4.55%; in the assay on Huh7, 125 ± 1.53%; in the assay with SKOV3 it was 57.2 ± 4.16%. For the same compound, the inhibition at 40 µM with A549 was above 50%. Besides, the “autophagy (autophagosome, MDC probe)” value in the assay with A549 cells [1] is reported as “autophagy was largely induced”. Further, the “percentage of early and late apoptotic cells” value was 12.57% in the assay on A549 cells [2] (A549, 5 μM); 27.21% in the assay with A549 cells [2] (A549, 10 μM); 72.02% with A549 cells [2] (A549, 20 μM). For the same compound, the “DNA damage (γ-H2AX staining)” value in the assay with A549 cells [3] is given as “significantly led to DNA damage in a concentration-dependent manner”.

On to `O=C1COc2ccc(NC(=O)c3cccc(-c4cn(-c5cccc(Br)c5)nn4)c3)cc2N1` [Compound 14b], for which the values for the IC50 in the assay with A549 (setting [4]) and in the assay with A549 (setting [5]) were 25.1 ± 4.62 µM and 7.59 ± 0.31 µM, respectively. The viability at 40 µM was 27 ± 0.98% in the assay with A549; 114 ± 1.68% with MCF-7; 125 ± 2.78% in the assay on HCT-116; 123 ± 2.08% with Huh7; 98.02 ± 0.87% in the assay with SKOV3. In addition, the inhibition at 40 µM in the assay on A549 was above 50%. Besides, the “autophagy (autophagosome, MDC probe)” value in the assay with A549 cells [1] is listed as “autophagy was largely induced”. In addition, the “percentage of early and late apoptotic cells” value amounted to 13.92% in the assay on A549 cells [2] (A549, 5 μM); 25.85% with A549 cells [2] (A549, 10 μM); 49.04% in the assay on A549 cells [2] (A549, 20 μM). Moreover, the “DNA damage (γ-H2AX staining)” value in the assay with A549 cells [3] was “significantly led to DNA damage in a concentration-dependent manner”.
